# Where two headings read alike, the source gives them in different places.
# Tests used:
# [1] = Penetration study with 5% enhancer incorporated into W/O formulation
# Procedure: (§1) Permeation study was performed in four fold determination with the test and the reference item at human skin. For the transport studies the dermatomized skin was cut with a punch of 24 mm diameter and the thickness of the skin was measured at five points for each sample. Subsequently the skin pieces were fastened on cylindrical glass Franz cells which are employed as diffusion chambers. The lower (acceptor) chamber has a volume of approximately 12 ml, while the volume of the upper (donor) chamber is variable. The skin was inserted with the dermal layer facing downwards so that the skin's corneous layer is uppermost.
# PE2 (C12) which is solid at room temperature, was gently melted in a water bath (at 35 to 40° C.) and applied as liquid. After 30 min of incubation the liquid penetration enhancers were gently removed with cotton balls. In the case of PE2 which solidified on the skin, the solid film was removed with a pincer. Thereafter 50 μl of the formulations were applied at the surface of the skin. The acceptor medium was thermostated at 32° C. and continuously stirred at a rate of 400 rpm. The diffusion area of skin was approximately 1.8 cm^2. Permeation through the skin into the acceptor medium was monitored over a period of 24 hours. The acceptor medium was sampled at 4 different time points, after 1, 3, 6 and 24 hours, by withdrawing samples of 200 μl. After withdrawing a sample volume, the acceptor medium was refilled with pre-warmed KRB/KRB+2% BSA. The concentration of active ingredients in the acceptor chamber was corrected to take the dilution introduced by sampling into account. Taken samples were mixed with 210 μl or 500 μl of scintillation cocktail for at least 1 hour at 200 rpm and radioactivity measured by scintillation counting.
# The described study was partly repeated in a similar experimental setup with three test substances to act as skin permeation enhancer when incorporated into the cosmetic formulation and not applied directly to the skin: • Dimethyl isosorbide (DMI) a well-known penetration enhancer—used in cosmetics • Penetration Enhancer 1 (PE1)—capryloyl alanine ethylester • Penetration Enhancer 2 (DGME)—prior art penetration enhancer Transcutol (Gattefossee), diethylene glycol mono ethyl ether
# Formulation 1 (W/O formulation) served as a basic formulation and as a reference without any penetration enhancer. This time the skin was not pre-incubated with the selected penetration enhancers (DMI, PE1 and DGME), but 5% of the respective penetration enhancer was incorporated into formulation 1 and the resulting formulations were spiked once again with radiolabeled ^3H-caffeine or ^3H-Vitamin E acetate.
# [2] = Penetration study with the enhancer applied directly to the skin (preincubation), Franz cells, radiolabeled markers from W/O formulation 1
# Procedure: The aim of the present study was to determine the potency of three test substances (one being the closest prior art penetration enhancer) to act as skin permeation enhancer in cosmetic formulations: • Dimethyl isosorbide (DMI) a well-known penetration enhancer—used in cosmetics • Penetration Enhancer 1 (PE1)—capryloyl alanine ethylester • Penetration Enhancer 2 (PE2)—closest prior art molecule dodecyloyl alanine ethylester
# The tests were performed by an independent test institute specialized in penetration testing. […] The skin was pre-incubated with the selected penetration enhancers (DMI, PE1 and PE2) and after incubation time of 30 min formulation was removed from the skin surface and formulation 1 spiked with radiolabeled ^3H-caffeine or ^3H-Vitamin E acetate was applied.
# The impact of the three penetration enhancers on the skin absorption rate of caffeine and Vitamin E acetate (representative hydrophilic and lipophilic cosmetic actives, respectively) incorporated into a w/o formulation was investigated. Radiolabeled caffeine and Vitamin E acetate were used as markers. The in vitro skin permeation studies were performed with dermatomized human skin (approximately 500 μm in thickness) over a period of 24 h in triplicate. Samples from the acceptor compartment were taken at four sampling times (1, 3, 6 and 24 h) to screen the permeation enhancement effect.
# The transdermal absorption of the test compounds ^3H-caffeine and ^3H-Vitamin E acetate was monitored by measuring the amount of radio labeled substances in the acceptor medium.
# The test compounds were quantified by liquid scintillation counting.
# In accordance to the SCCP Guidelines of the European Commission the excised human skin from surgery is an appropriate in vitro test system to simulate the permeation and penetration processes of a compound into and across human skin under in vivo conditions.
# For the penetration study, the human skin (female abdomen skin) of one donor which was dermatomized to a thickness of 500±100 μm was used and tests were conducted in triplicate. Full-thickness skin was prepared from the skin biopsies and stored at −20° C. […] The skin was used immediately after thawing. Repeated freeze-thaw cycles were avoided.
# Formulation 1 (without penetration enhancer) was spiked with radiolabeled ^3H-caffeine (specific activity: 60 Ci/mmol) and ^3H-Vitamin E acetate (specific activity: 50 Ci/mmol) and applied as control directly to the skin. The radio labeled samples were prepared as follows: Formulation 1 was spiked with either radiolabeled ^3H-caffeine or ^3H-Vitamin E acetate resulting in 2960000 cpm/50 μl or 1264557 cpm/50 μl, respectively. One of the three different penetration enhancers (DMI, PE1 and PE2) was applied to the skin prior to the application of the radioactively spiked W/O-formulation.
# Krebs Ringer buffer (KRB, pH=7.4) was prepared according to an internal standard operation procedure. KRB was used as the acceptor medium for ^3H-caffeine. For ^3H-Vitamin E acetate, KRB supplemented with 2% bovine serum albumin (BSA) was used as the acceptor medium. Solutions of ^3H-caffeine and ^3H-Vitamin E acetate were used to validate the detection method and to assess linearity.
# as §1
# [3] = Hansen Solubility Parameters (HSP) distance to the stratum corneum; type: physicochemical
# From the text: Capryloyl alanine ethyl ester turned out to have a smaller Hansen Solubility Parameters (HSP) distance to the stratum corneum than well-known and established references like DMI and ethyldiethylenglycol which indicates a good potential as skin penetration enhancer. Hansen Solubility Parameters are a key indicator for good partitioning into the stratum corneum provided the molecule is liquid at RT and has a small enough molecular volume.
# [4] = Penetration of the penetration enhancer itself through the skin; type: in vitro ADME
# From the text: Furthermore, capryloyl-alanine ethylester can be metabolized in the skin thereby contributing to an improved toxicological profile.
# [5] = after 24 hours, skin pre-incubated 30 min with 20 μl enhancer, then W/O formulation 1 with 3H-caffeine, n = 3
# [6] = after 24 hours, versus reference without enhancer, preincubation, n = 3
# [7] = at 24 hours, skin pre-incubated 30 min with 20 μl enhancer, then W/O formulation 1 with 3H-Vitamin E acetate, n = 3
# [8] = at 24 hours, versus reference without enhancer, preincubation, n = 3
# [9] = preincubation, 24 h detection time
# [10] = preincubation, caffeine in w/o formulation, 24 h
Effect on transport of caffeine compared to the reference formulation without any enhancer [1],"Average cumulative transport of 3H-caffeine ([1]; human, 24 h, 5 %, pH 7.4)","Enhancement Ratio for 3H-caffeine ([1]; human, 24 h, 5 %, pH 7.4)",SMILES,"Average cumulative transport of 3H-caffeine [2, 5]","Enhancement Ratio for 3H-caffeine [2, 6]","Average cumulative transport of 3H-Vitamin E acetate [2, 7]","Enhancement Ratio for 3H-Vitamin E acetate [2, 8]","Effect on transport of Vitamin E acetate [2, 9]","Caffeine transport compared to the control without any penetration enhancer [2, 10]",other results
slightly enhanced the transport,278.404 cpm/cm2,1.12,"CCOCCOCCO [DGME, diethylene glycol mono ethyl ether]",,,,,,,
most effective permeation enhancer,342.593 cpm/cm2,1.38,"CCCCCCCC(=O)N[C@@H](C)C(=O)OCC [PE1, capryloyl alanine ethylester]",,,,,,,"Effect on transport of Vitamin E acetate [2]: only a slight penetration enhancing effect; Average cumulative transport of 3H-Vitamin E acetate ([2]; female, human, 24 h, pH 7.4): 2712 dpm/cm^2; Average cumulative transport of 3H-caffeine ([2]; female, human, 24 h, pH 7.4): 414024 dpm/cm^2; Caffeine transport compared to the control without any penetration enhancer ([2]; female, human, 24 h, pH 7.4): approximately 5 times; Enhancement Ratio for 3H-Vitamin E acetate ([2]; female, human, 24 h, pH 7.4): 1.06; Enhancement Ratio for 3H-caffeine ([2]; female, human, 24 h, pH 7.4): 4.89; Penetration of Vitamin E acetate with PE1 in comparison to PE2 ([2]; female, human, 24 h, pH 7.4): 1.5 fold; HSP distance to the stratum corneum compared with DMI and ethyldiethylenglycol [3]: smaller; Penetration of the enhancer itself through the skin compared with DMI [4]: lesser degree than DMI"
,,,"CO[C@H]1CO[C@H]2[C@@H]1OC[C@H]2OC [DMI, Dimethyl isosorbide]",203120 dpm/cm^2,2.40,2578 dpm/cm^2,1.01,only a slight penetration enhancing effect,around twice,"Average cumulative transport of 3H-caffeine ([1]; at 24 hours, 5% enhancer incorporated into w/o formulation, n = 4): 212.435 cpm/cm2; Enhancement Ratio for 3H-caffeine ([1]; at 24 hours, 5% enhancer incorporated, versus reference formulation 1 without enhancer, n = 4): 0.86; Effect on transport of caffeine compared to the reference formulation without any enhancer ([1]; enhancer incorporated into W/O formulation): slightly decreased transport"
,,,"CCCCCCCCCCCC(=O)N[C@@H](C)C(=O)OCC [PE2, dodecyloyl alanine ethylester]",262929 dpm/cm^2,3.11,1814 dpm/cm^2,0.70,reduced the transport,approximately 3 times,
